US8557797B2, “Triazolopyridine derivatives and their therapeutic use” (Chiesi Farmaceutici S.p.A., priority 2009, dated 2013)

Columns and labels:
[1] = molecular target: T1, p38α (Homo sapiens, UniProt Q16539); experiment: p38 Kinase Assay (ATF-2 phosphorylation ELISA); type: biochemical; details: 2 h pre-incubation, ATP 250 μM, 1% DMSO; read-out: p38α inhibition (IC50 values)
T1 construct: purchased Calbiochem 559324; host or cells: E. coli
Protocol: Human recombinant p38 enzyme expressed in E. coli and activated by incubation with MKK6 enzyme (Calbiochem #559324) is used as source of enzyme activity.
The assay is carried in high binding, clear, flat bottom 96 well assay plates which have been coated with recombinant ATF-2 (Biosource #PHF0043). Test compounds are incubated with p38 kinase for 2 h prior to initiating the kinase assay by the addition of ATP to obtain an assay concentration of 250 μM. Phosphorylation of ATF-2 is detected and quantified using an ELISA. This consists of sequential incubation in the presence of anti-phospho-ATF2, biotinylated anti-IgG and streptavidin-HRP. Incubation with an HRP chromogenic substrate (TMB) results in absorbance that is proportional to the amount of phosphorylated substrate produced. Absorbance is detected using a multiwell plate reader.
Compounds are diluted in DMSO prior to addition to assay buffer, the final DMSO concentration in the assay being 1%.
The IC50 is defined as the concentration at which a given compound achieves 50% inhibition of control.

[2] = system: TNFα release from LPS activated THP-1 cells or PBMC's; experiment: p38 Functional Assay (TNFα release after LPS); type: cell-based; details: Homo sapiens, 1 h pre-treatment, 0.3% DMSO, read-out: EC50 (inhibition of TNFα release)
Protocol: Inhibition of cellular p38 depresses the release of TNFα, a functional response which is quantified by measurement of the amount of TNFα in the supernatants of LPS activated THP-1 cells (an immortalised monocytic cell line) or peripheral blood mononuclear cells (PBMC's) isolated from freshly drawn human blood.
Cells seeded in 96 well plates are pre-treated by the addition of p38 inhibitors for 1 h followed by addition of lipopolysaccharide (LPS) to activate cytokine production and release. The amount of TNFα released into the cell supernatants is quantified using an R&D Systems enzyme linked immunosorbant assay (ELISA) kit (product DY210) following the manufacturers instructions.
Compounds are diluted in DMSO prior to addition, the final DMSO concentration in the assay being 0.3%. The EC50 is defined as the concentration at which a given compound achieves 50% inhibition of the control.

[3] = system: BAL cell influx induced by tobacco smoke; experiment: Tobacco smoke induced pulmonary inflammation, mouse model of COPD inflammation; type: in vivo; details: mice, intranasal, 30, 100 or 300 μg/kg, 4 days TS, BAL 24 h after final exposure (FIG. 1)
Protocol: Pre-clinical mouse model of COPD inflammation—Tobacco smoke induced pulmonary inflammation. […] In this exposure protocol, mice were exposed in groups of 5 in individual clear polycarbonate chambers (27 cm×16 cm×12 cm). The TS from the cigarettes was allowed to enter the exposure chambers at a flow rate of 100 ml/min. In order to minimise any potential problems caused by repeated exposure to a high level of TS (6 cigarettes), the exposure of the mice to TS was increased gradually over the exposure period to a maximum of 6 cigarettes. The exposure schedule used for 4 days was as follows: Bronchoalveolar lavage was performed as follows: the trachea was cannulated using a Portex nylon intravenous cannula (pink luer fitting) shortened to approximately 8 mm. […] The cell pellet was re-suspended in a known volume of PBS and total cell numbers calculated by counting a stained (Turks stain) aliquot under a microscope using a haemocytometer. […] When dried and cover-slipped, differential cells were counted using light microscopy. Up to 400 cells were counted by unbiased operator using light microscopy. […] All results are presented as individual data points for each animal and the mean value was calculated for each group. […] Percentage inhibitions were automatically calculated within the Excel spreadsheets for the cell data using the formula below: […]

T1 sequence (Q16539 whole entry): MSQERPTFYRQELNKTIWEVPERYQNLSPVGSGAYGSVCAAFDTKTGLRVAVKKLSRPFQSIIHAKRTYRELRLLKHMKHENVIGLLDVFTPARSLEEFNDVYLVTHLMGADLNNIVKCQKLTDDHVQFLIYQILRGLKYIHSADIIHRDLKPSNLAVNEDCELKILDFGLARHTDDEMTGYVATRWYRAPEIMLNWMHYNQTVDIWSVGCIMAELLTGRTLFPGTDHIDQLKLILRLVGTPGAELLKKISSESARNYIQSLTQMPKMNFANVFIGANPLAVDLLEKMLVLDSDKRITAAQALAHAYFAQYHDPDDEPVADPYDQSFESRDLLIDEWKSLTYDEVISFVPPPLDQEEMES

SMILES | IC50 [1] | EC50 [2] | BAL cell influx induced by TS [3]
Cc1ccc(-n2nc(C(C)(C)C)cc2NC(=O)N[C@H]2CC[C@@H](Oc3ccc4nnc(-c5cccc(OCCN6CCOCC6)c5)n4c3)CC2)cc1 [Example 15] | 100 to 500 nM | 500 to 7000 nM | –
Cc1ccc(-n2nc(C(C)(C)C)cc2NC(=O)CN2CCC(Oc3ccc4nnc(-c5cccc(OCCN6CCOCC6)c5)n4c3)CC2)cc1 [Example 17, N-(5-tert-Butyl-2-p-tolyl-2H-pyrazol-3-yl)-2-(4-{3-[3-(2-morpholin-4-yl-ethoxy)-phenyl]-[1,2,4]triazolo[4,3-a]pyridin-6-yloxy}-piperidin-1-yl)-acetamide] | 500 to 2000 nM | 500 to 7000 nM | –
CC(C)c1nnc2ccc(Sc3ccc(CC(=O)Nc4cc(C(C)(C)C)nn4-c4ccc(OCCN5CCOCC5)cc4)cc3)cn12 [Example 19, N-{5-tert-Butyl-2-[4-(2-morpholin-4-yl-ethoxy)-phenyl]-2H-pyrazol-3-yl}-2-[4-(3-isopropyl-[1,2,4]triazolo[4,3-a]pyridin-6-ylsulfanyl)-phenyl]-acetamide] | 500 to 2000 nM | 500 to 7000 nM | –
Cc1ccc(-n2nc(C(C)(C)C)cc2NC(=O)N[C@H]2CC[C@H](Oc3ccc4nnc(C(C)C)n4c3)CC2)cc1 [Example 21, 1-(5-tert-Butyl-2-p-tolyl-2H-pyrazol-3-yl)-3-[4-(3-isopropyl-[1,2,4]triazolo[4,3-a]pyridin-6-yloxy)-cyclohexyl]-urea] | 10 to 100 nM | 10 to 100 nM | –
Cc1ccc(-n2nc(C(C)(C)C)cc2NC(=O)C[C@H]2CC[C@H](Oc3ccc4nnc(C(C)C)n4c3)CC2)cc1 [Example 22, N-(5-tert-Butyl-2-p-tolyl-2H-pyrazol-3-yl)-2-[4-(3-isopropyl-[1,2,4]-triazolo[4,3-a]pyridin-6-yloxy)-cyclohexyl]-acetamide] | 500 to 2000 nM | 500 to 7000 nM | –

Continued, in another order:

IC50 [1] | SMILES | EC50 [2] | BAL cell influx induced by TS [3]
10 to 100 nM | Cc1ccc(-n2nc(C(C)(C)C)cc2NC(=O)Nc2ccc(Sc3ccc4nnc(-c5cccc(OCCN6CCOCC6)c5)n4c3)cc2)cc1 [Example 10, 1-(5-tert-Butyl-2-p-tolyl-2H-pyrazol-3-yl)-3-(4-{3-[3-(2-morpholin-4-yl-ethoxy)-phenyl]-[1,2,4]triazolo[4,3-a]pyridin-6-ylsulfanyl}-phenyl)-urea] | 10 to 100 nM | significantly inhibited
10 to 100 nM | CC(C)(C)c1cc(NC(=O)N[C@H]2CC[C@H](Oc3ccc4nnc(-c5cccc(OCCN6CCOCC6)c5)n4c3)CC2)n(-c2ccccc2)n1 [Example 16] | 500 to 7000 nM | –
< 10 nM | Cc1ccc(-n2nc(C(C)(C)C)cc2NC(=O)Cc2ccc(Sc3ccc4nnc(-c5cccc(O)c5)n4c3)cc2)cc1 [Example 18, N-(5-tert-Butyl-2-p-tolyl-2H-pyrazol-3-yl)-2-{4-[3-(3-hydroxy-phenyl)-[1,2,4]triazolo[4,3-a]pyridin-6-ylsulfanyl]-phenyl}-acetamide] | 10 to 100 nM | –
10 to 100 nM | CC(C)c1nnc2ccc(Sc3ccc(CC(=O)Nc4cc(C(C)(C)C)nn4-c4ccc(O)cc4)cc3)cn12 [Example 20, N-[5-tert-Butyl-2-(4-hydroxy-phenyl)-2H-pyrazol-3-yl]-2-[4-(3-isopropyl-[1,2,4]triazolo[4,3-a]pyridin-6-ylsulfanyl)-phenyl]-acetamide] | 10 to 100 nM | –
< 10 nM | Cc1ccc(-n2nc(C(C)(C)C)cc2NC(=O)Cc2ccc(Oc3ccc4nnc(C(C)C)n4c3)cc2)cc1 [Example 23, N-(5-tert-Butyl-2-p-tolyl-2H-pyrazol-3-yl)-2-[4-(3-isopropyl-[1,2,4]triazolo[4,3-a]pyridin-6-yloxy)-phenyl]-acetamide] | < 10 nM | –
